Results as given in patent US20200199127A1, “(HETERO)ARYLALKYLAMINO-PYRAZOLOPYRIDAZINE DERIVATIVES HAVING MULTIMODAL ACTIVITY AGAINST PAIN” (priority 2017, published 2020).
pKi: −log10 of the molar value.

Experiments:
[1] = target: Human norepinephrine transporter (NET) (Homo sapiens, UniProt P23975); assay: Binding assay to human norepinephrine transporter (NET), [3H]-Nisoxetin; conditions: human NET enriched membranes, 5 nM [3H]-Nisoxetin; Ki as class symbol
Protocol: Binding Assay to Human Norepinephrine Transporter (NET).
Human norepinephrine transporter (NET) enriched membranes (5 μg) were incubated with 5 nM of radiolabeled [3H]-Nisoxetin in assay buffer containing 50 mM Tris-HCl, 120 mM NaCl, 5 mM KCl, pH 7.4.
NSB (non specific binding) was measured by adding 10 μM of desipramine. The binding of the test compound was measured at five different concentrations.. After 60 min incubation at 4° C., binding reaction was terminated by filtering through Multiscreen GF/C (Millipore) presoaked in 0.5% polyethyleneimine in Vacuum Manifold Station, followed by 3 washes with ice-cold filtration buffer containing 50 mM Tris-HCl, 0.9% NaCl, pH 7.4.
Filter plates were dried at 60° C. for 1 hour and 30 μl of scintillation cocktail were added to each well before radioactivity reading.

[2] = target: Human α2δ-1 subunit of Cav2.2 calcium channel (Homo sapiens, UniProt P54289); assay: Human α2δ-1 subunit of Cav2.2 calcium channel assay, [3H]-Gabapentin binding; conditions: human α2δ-1 enriched membranes, 15 nM [3H]-Gabapentin; Ki as class symbol
Protocol: Human α2δ-1 Subunit of Cav2.2 Calcium Channel Assay
Human α2δ-1 enriched membranes (2.5 μg) were incubated with 15 nM of radiolabeled [3H]-Gabapentin in assay buffer containing Hepes-KOH 10 mM, pH 7.4. NSB (non specific binding) was measured by adding 10 μM pregabalin. The binding of the test compound was measured at five different concentrations. After 60 min incubation at 27° C., binding reaction was terminated by filtering through Multiscreen GF/C (Millipore) presoaked in 0.5% polyethyleneimine in Vacuum Manifold Station, followed by 3 washes with ice-cold filtration buffer containing 50 mM Tris-HCl, pH 7.4. Filter plates were dried at 60° C. for 1 hour and 30 μl of scintillation cocktail were added to each well before radioactivity reading. Readings were performed in a Trilux 1450 Microbeta radioactive counter (Perkin Elmer).

Chain of Human norepinephrine transporter (NET) (P23975 whole entry): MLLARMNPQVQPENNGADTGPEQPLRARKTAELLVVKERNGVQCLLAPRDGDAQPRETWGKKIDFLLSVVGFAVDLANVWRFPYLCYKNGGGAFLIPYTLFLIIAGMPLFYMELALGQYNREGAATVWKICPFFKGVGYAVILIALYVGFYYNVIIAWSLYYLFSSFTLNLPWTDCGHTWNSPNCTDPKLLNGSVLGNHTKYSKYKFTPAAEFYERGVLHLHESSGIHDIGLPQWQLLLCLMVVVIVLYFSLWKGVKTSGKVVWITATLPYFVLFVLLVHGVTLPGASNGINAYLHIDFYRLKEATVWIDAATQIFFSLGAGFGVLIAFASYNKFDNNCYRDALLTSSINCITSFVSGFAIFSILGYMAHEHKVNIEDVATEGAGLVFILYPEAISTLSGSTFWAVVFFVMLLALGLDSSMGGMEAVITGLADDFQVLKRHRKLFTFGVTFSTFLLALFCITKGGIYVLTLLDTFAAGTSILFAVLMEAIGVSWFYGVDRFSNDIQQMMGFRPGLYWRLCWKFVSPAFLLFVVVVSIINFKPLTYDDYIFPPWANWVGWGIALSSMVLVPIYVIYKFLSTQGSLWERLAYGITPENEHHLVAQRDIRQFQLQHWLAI
Chain of Human α2δ-1 subunit of Cav2.2 calcium channel (P54289 25-1103): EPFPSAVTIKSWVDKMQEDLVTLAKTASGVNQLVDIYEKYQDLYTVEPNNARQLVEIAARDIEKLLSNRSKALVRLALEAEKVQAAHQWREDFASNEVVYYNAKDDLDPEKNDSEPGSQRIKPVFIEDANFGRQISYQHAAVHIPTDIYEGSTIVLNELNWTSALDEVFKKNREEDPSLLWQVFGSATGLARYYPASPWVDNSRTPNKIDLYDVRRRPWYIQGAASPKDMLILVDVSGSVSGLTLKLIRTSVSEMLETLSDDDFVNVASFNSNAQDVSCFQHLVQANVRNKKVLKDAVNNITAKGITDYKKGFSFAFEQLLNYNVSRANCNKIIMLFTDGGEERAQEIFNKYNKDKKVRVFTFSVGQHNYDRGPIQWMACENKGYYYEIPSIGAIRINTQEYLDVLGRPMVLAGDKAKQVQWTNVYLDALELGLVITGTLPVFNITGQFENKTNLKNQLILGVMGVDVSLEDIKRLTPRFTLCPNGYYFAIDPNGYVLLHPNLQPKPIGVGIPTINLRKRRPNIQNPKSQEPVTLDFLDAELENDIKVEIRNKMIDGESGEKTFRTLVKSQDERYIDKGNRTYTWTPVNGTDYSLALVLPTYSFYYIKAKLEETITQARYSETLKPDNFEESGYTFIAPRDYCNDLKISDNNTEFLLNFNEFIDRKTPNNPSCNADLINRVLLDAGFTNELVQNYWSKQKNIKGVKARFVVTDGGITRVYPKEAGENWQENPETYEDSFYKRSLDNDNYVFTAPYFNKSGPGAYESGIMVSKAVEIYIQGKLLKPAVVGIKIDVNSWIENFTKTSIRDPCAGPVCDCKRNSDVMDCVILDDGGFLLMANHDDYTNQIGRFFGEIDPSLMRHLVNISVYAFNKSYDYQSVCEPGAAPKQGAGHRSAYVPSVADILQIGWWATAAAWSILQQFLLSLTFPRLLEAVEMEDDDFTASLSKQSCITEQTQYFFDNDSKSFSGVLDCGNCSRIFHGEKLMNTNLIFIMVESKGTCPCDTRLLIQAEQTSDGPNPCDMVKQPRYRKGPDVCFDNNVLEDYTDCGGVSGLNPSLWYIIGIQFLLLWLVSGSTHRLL

Row | SMILES | pKi [1] | pKi [2]
1 | CCOc1ccc(-n2nc3c(N(C)Cc4ccncc4)nnc(C)c3c2C)c(F)c1 [Example 11, 2-(4-ethoxy-2-fluorophenyl)-N,3,4-trimethyl-N-(pyridin-4-ylmethyl)-2H-pyrazolo[3,4-d]pyridazin-7-amine] | < 6.00 | 6.30 to 7.00
2 | CCOc1ccc(-n2nc3c(NCC(O)Cc4ccccc4)nnc(C)c3c2C)c(F)c1 (stereo not drawn) [Example 19, 1-((2-(4-ethoxy-2-fluorophenyl)-3,4-dimethyl-2H-pyrazolo[3,4-d]pyridazin-7-yl)amino)-3-phenylpropan-2-ol] | < 6.00 | 6.30 to 7.00
3 | CCOc1ccc(-n2nc3c(NCc4cc(C)ccn4)nnc(C)c3c2C)c(F)c1 [Example 22, 2-(4-ethoxy-2-fluorophenyl)-3,4-dimethyl-N-((4-methylpyridin-2-yl)methyl)-2H-pyrazolo[3,4-d]pyridazin-7-amine] | < 6.00 | 6.30 to 7.00
4 | CCOc1ccc(-n2nc3c(N(C)Cc4ccc(C)cn4)nnc(C)c3c2C)c(F)c1 [Example 34, 2-(4-ethoxy-2-fluorophenyl)-N,3,4-trimethyl-N-((5-methylpyridin-2-yl)methyl)-2H-pyrazolo[3,4-d]pyridazin-7-amine] | < 6.00 | 6.30 to 7.00
5 | COc1ccc(-n2nc3c(N(C)Cc4ccccn4)nnc(C)c3c2C)c(F)c1 [Example 45, 2-(2-fluoro-4-methoxyphenyl)-N,3,4-trimethyl-N-(pyridin-2-ylmethyl)-2H-pyrazolo[3,4-d]pyridazin-7-amine] | < 6.00 | ≤ 5.30
6 | CCOc1ccc(-n2nc3c(N(C)Cc4cnccn4)nnc(C)c3c2C)c(F)c1 [Example 35, 2-(4-ethoxy-2-fluorophenyl)-N,3,4-trimethyl-N-(pyrazin-2-ylmethyl)-2H-pyrazolo[3,4-d]pyridazin-7-amine] | < 6.00 | 6.30 to 7.00
7 | CCOc1ccc(-n2nc3c(NCC(CO)Cc4ccccc4)nnc(C)c3c2C)c(F)c1 (stereo not drawn) [Example 12, 2-benzyl-3-((2-(4-ethoxy-2-fluorophenyl)-3,4-dimethyl-2H-pyrazolo[3,4-d]pyridazin-7-yl)amino)propan-1-ol] | 6.30 to 7.00 | 6.30 to 7.00
8 | CCOc1ccc(-n2nc3c(N(C)Cc4ncccc4C)nnc(C)c3c2C)c(F)c1 [Example 32, 2-(4-ethoxy-2-fluorophenyl)-N,3,4-trimethyl-N-((3-methylpyridin-2-yl)methyl)-2H-pyrazolo[3,4-d]pyridazin-7-amine] | 6.30 to 7.00 | 6.30 to 7.00
9 | CCOc1ccc(-n2nc3c(N(C)CCc4ccccn4)nnc(C)c3c2C)c(F)c1 [Example 16, 2-(4-ethoxy-2-fluorophenyl)-N,3,4-trimethyl-N-(2-(pyridin-2-yl)ethyl)-2H-pyrazolo[3,4-d]pyridazin-7-amine] | < 6.00 | 6.30 to 7.00
10 | CCOc1ccc(-n2nc3c(NC(CCO)c4ccccc4)nnc(C)c3c2C)c(F)c1 (stereo not drawn) [Example 8, 3-((2-(4-ethoxy-2-fluorophenyl)-3,4-dimethyl-2H-pyrazolo[3,4-d]pyridazin-7-yl)amino)-3-phenylpropan-1-ol] | < 6.00 | 6.30 to 7.00
11 | CCOc1ccc(-n2nc3c(NCCC4(c5ccccn5)CCOC5(CCCC5)C4)nnc(C)c3c2C)c(F)c1 (stereo not drawn) [Example 59, 2-(4-ethoxy-2-fluorophenyl)-3,4-dimethyl-N-(2-(9-(pyridin-2-yl)-6-oxaspiro[4.5]decan-9-yl)ethyl)-2H-pyrazolo[3,4-d]pyridazin-7-amine] | < 6.00 | ≤ 5.30
12 | CCOc1ccc(-n2nc3c(NCc4ccccc4CO)nnc(C)c3c2C)c(F)c1 [Example 37, (2-(((2-(4-ethoxy-2-fluorophenyl)-3,4-dimethyl-2H-pyrazolo[3,4-d]pyridazin-7-yl)amino)methyl)phenyl)methanol] | < 6.00 | 6.30 to 7.00
13 | CCOc1ccc(-n2nc3c(NCCC(O)c4ccccc4)nnc(C)c3c2C)c(F)c1 (stereo not drawn) [Example 7, 3-((2-(4-ethoxy-2-fluorophenyl)-3,4-dimethyl-2H-pyrazolo[3,4-d]pyridazin-7-yl)amino)-1-phenylpropan-1-ol] | 6.30 to 7.00 | 6.30 to 7.00
14 | CCOc1ccc(-n2nc3c(NCc4ncccc4C(F)(F)F)nnc(C)c3c2C)c(F)c1 [Example 20, 2-(4-ethoxy-2-fluorophenyl)-3,4-dimethyl-N-((3-(trifluoromethyl)pyridin-2-yl)methyl)-2H-pyrazolo[3,4-d]pyridazin-7-amine] | < 6.00 | 6.30 to 7.00
15 | CCOc1ccc(-n2nc3c(N(C)Cc4cnc[nH]4)nnc(C)c3c2C)c(F)c1 [Example 24, N-((1H-imidazol-5-yl)methyl)-2-(4-ethoxy-2-fluorophenyl)-N,3,4-trimethyl-2H-pyrazolo[3,4-d]pyridazin-7-amine] | < 6.00 | 6.30 to 7.00
16 | CCOc1ccc(-n2nc3c(N(C)Cc4cccnc4)nnc(C)c3c2C)c(F)c1 [Example 10, 2-(4-ethoxy-2-fluorophenyl)-N,3,4-trimethyl-N-(pyridin-3-ylmethyl)-2H-pyrazolo[3,4-d]pyridazin-7-amine] | 6.00 to 6.30 | 6.30 to 7.00
17 | CCOc1ccc(-n2nc3c(N(CCO)Cc4cccnc4)nnc(C)c3c2C)c(F)c1 [Example 57, 2-((2-(4-ethoxy-2-fluorophenyl)-3,4-dimethyl-2H-pyrazolo[3,4-d]pyridazin-7-yl)(pyridin-3-ylmethyl)amino)ethanol] | < 6.00 | ≤ 5.30
18 | CCOc1ccc(-n2nc3c(N(CC)Cc4ccccn4)nnc(C)c3c2C)c(F)c1 [Example 40, 2-(4-ethoxy-2-fluorophenyl)-N-ethyl-3,4-dimethyl-N-(pyridin-2-ylmethyl)-2H-pyrazolo[3,4-d]pyridazin-7-amine] | 6.30 to 7.00 | 5.30 to 6.30
19 | CCOc1ccc(-n2nc3c(N(C)CCn4cnc5ccccc54)nnc(C)c3c2C)c(F)c1 [Example 58, N-(2-(1H-Benzo[d]imidazol-1-yl)ethyl)-2-(4-ethoxy-2-fluorophenyl)-N,3,4-trimethyl-2H-pyrazolo[3,4-d]pyridazin-7-amine] | < 6.00 | 5.30 to 6.30
20 | CCOc1ccc(-n2nc3c(N(C)Cc4ccncn4)nnc(C)c3c2C)c(F)c1 [Example 36, 2-(4-ethoxy-2-fluorophenyl)-N,3,4-trimethyl-N-(pyrimidin-4-ylmethyl)-2H-pyrazolo[3,4-d]pyridazin-7-amine] | < 6.00 | 6.30 to 7.00
21 | CCOc1ccc(-n2nc3c(N(C)Cc4cscn4)nnc(C)c3c2C)c(F)c1 [Example 29, 2-(4-ethoxy-2-fluorophenyl)-N,3,4-trimethyl-N-(thiazol-4-ylmethyl)-2H-pyrazolo[3,4-d]pyridazin-7-amine] | < 6.00 | 6.30 to 7.00
22 | CCOc1ccc(-n2nc3c(N(C)C(CCO)c4ccccc4)nnc(C)c3c2C)c(F)c1 (stereo not drawn) [Example 54, 3-((2-(4-ethoxy-2-fluorophenyl)-3,4-dimethyl-2H-pyrazolo[3,4-d]pyridazin-7-yl)(methyl)amino)-3-phenylpropan-1-ol] | < 6.00 | 5.30 to 6.30
23 | CCOc1ccc(-n2nc3c(N(C)CCCc4ccccc4)nnc(C)c3c2C)c(F)c1 [Example 4, 2-(4-ethoxy-2-fluorophenyl)-N,3,4-trimethyl-N-(3-phenylpropyl)-2H-pyrazolo[3,4-d]pyridazin-7-amine] | 6.30 to 7.00 | 6.30 to 7.00
24 | CCOc1ccc(-n2nc3c(N(C)Cc4ccn[nH]4)nnc(C)c3c2C)c(F)c1 [Example 28, N-((1H-pyrazol-5-yl)methyl)-2-(4-ethoxy-2-fluorophenyl)-N,3,4-trimethyl-2H-pyrazolo[3,4-d]pyridazin-7-amine] | < 6.00 | 6.30 to 7.00
